Measured values published in US20250339374A1, “BONDED MICROPARTICULATES PREPARATION AND APPLICATIONS THEREOF” (Venkor Corporation, priority 2022, published 2025).
Like-named read-outs stand apart in the source and are kept apart here.

Tests used:
[1] = Solubility in water of solid particulate material (descriptive); assay type: physicochemical
Method: In some embodiments, the solid particulate starting material is hydrophilic or hydrophobic or lipophilic in character. Solubility of drugs is measured by the amount of solvent needed to dissolve one part of the drug at a specific temperature. For example, a drug that is very soluble needs less than one part of solvent to dissolve one part of the drug. A drug that is considered freely soluble needs 1 to 10 parts of solvent, one that is soluble needs 10 to 30 parts of solvent, one that sparingly soluble need 30 to 100 parts of solvent, one that is slightly soluble needs 100-1,000 parts and one that is practically insoluble or insoluble needs more than 10,000 parts, per part of solute.

[2] = in water; description of the solid particulate material in the composition table; cited from earlier work
[3] = Sieve analysis (particle size) of solid particulate material and BMPX, USP <786>; assay type: physicochemical; settings: solid particulate material; for Particle size: description in composition table
Description: For example, to prepare tablets, certain excipients such as disintegrants, lubricants, glidants etc. may be added to the bonded microparticulates to further facilitate forming the tablet.

[4] = Tapped density, USP <616>; assay type: physicochemical; settings: solid particulate material, description in composition table; equals tapped density of Active
Method: In addition to screen analysis, the tap density and the bulk density of the bonded microparticulates and solid particulate material were determined.

[5] = description in composition table

Compound | Solubility [2] | Particle size [3] | Density [4] | other results
OC[C@@H](O)[C@@H](O)[C@H](O)[C@H](O)CO [Mannitol] |  |  |  | Solubility ([1]; in water): Solubility- insoluble in water
COc1ccccc1OCC(O)CO (centres unmarked) [Guaifenesin] | Solubility- soluble in water |  |  | 
OC[C@@H](O)[C@H](O)[C@@H](O)CO [Xylitol-90] |  |  |  | Solubility ([1]; in water): Solubility- soluble in water
Fructo-Oligosaccharide |  | Particle size- 149 microns | Density -0.75 (High Density) | Solubility [1, 5]: Solubility- soluble in water
OC[C@@H](O)[C@H](O)[C@@H](O)CO [Xylitol-300] |  | Particle size- 149 microns | Density -0.83 (High Density) | Solubility [1, 5]: Solubility- soluble in water
CC(C)Cc1ccc(C(C)C(=O)O)cc1 (centres unmarked) [Ibuprofen] | Solubility- in soluble in water |  |  | 
O=C(O)c1cccnc1 [Niacin] | Solubility- soluble in water |  |  | 
Sugar powder |  |  |  | Solubility ([1]; in water): Solubility- soluble in water
Zinc Gluconate |  | Particle size- 177 microns | Density- 0.6(Medium density) | 
O=C([O-])O.[Na+] [Sodium Bicarbonate, reference compound] |  | 74 microns | Density -1.19 (High Density)- | retain on 200# ([3]; 200 mesh): 70.8%
O=C([O-])[O-].[Ca+2] [Calcium Carbonate] |  |  | Density -1.2(High Density) | retain on 60mesh ([3]; 60 mesh): ≥ 90% retain on 60mesh
CCOC(=O)C1=C(COCCN)NC(C)=C(C(=O)OC)C1c1ccccc1Cl (centres unmarked) [Amlodipine Besylate] | Solubility- insoluble in water |  |  | 
